Results as given in patent US11319285B2, “N-acylated methionine sulfoxides as food flavouring compounds” (Givaudan S.A., priority 2015, dated 2022).

What was measured:
[1] = Expert taster comparison in a cheese sauce; conditions: 0.5 ppm in Maggie Saus Base with 0.05 g ethanol
Description: Samples were evaluated by expert tasters. Tasters were asked to describe the samples focusing on authentic taste, mouthfeel, fullness, salty-ness, salivation, umami, sweetness, juiciness, richness, long lastingness and fattiness.
Comparison in a Cheese Sauce
Base is a Maggie Saus Base with 0.05 g ethanol

[2] = Expert taster comparison in a cheese onion crisp; conditions: 10 ppb in crisp with proprietary cheese onion powder flavoring @ 6%
Description: (§1) Samples were evaluated by expert tasters. Tasters were asked to describe the samples focusing on authentic taste, mouthfeel, fullness, salty-ness, salivation, umami, sweetness, juiciness, richness, long lastingness and fattiness
Comparison in a Cheese Onion Crisp
Base is a crisp with proprietary cheese onion powder flavoring @ 6%

[3] = Expert taster comparison in Campbell's French onion soup; conditions: 10 ppb in Campbell's French onion soup
Description: as §1
Base is Campbell's® French onion soup

[4] = Expert taster comparison in UNOX 'Franse uiensoep' onion soup; conditions: 10 ppb in UNOX 'Franse uiensoep'
Description: as §1
Base is UNOX ‘Franse uiensoep’

Compound | taste description versus base [1] | taste description versus base [2] | taste description versus base [3] | taste description versus base [4]
CCCCCCCC/C=C\CCCCCCCC(=O)N[C@H](C[S+](C)[O-])C(=O)O (stereo partly drawn) [(2S)-3-(methylsulfinyl)-2-oleamidopropanoic acid] | salt/umami/fullness/cheesiness level enhanced | – | – | –
CCCCCCCC/C=C\CCCCCCCC(=O)N[C@@H](CC[S+](C)[O-])C(=O)O (stereo partly drawn) [Met-SO C18:1, (2S)-4-(methylsulfinyl)-2-oleamidobutanoic acid] | – | salt/taste level enhanced; onion character more fried | slightly stronger in salt; onion character slightly enhanced | slightly stronger in salt; onion character increased
